ChEMBL document CHEMBL3867430, “Novel 3,4-seco bile acid diamides as selective anticancer proliferation and migration agents” (Eur J Med Chem, 2016)

Assays:
[1] = Antiproliferative activity against human ES2 cells after 48 hrs by SRB assay; format: functional, cell-based; settings: ES-2, 48 h
[2] = Antiproliferative activity against human HT-29 cells after 48 hrs by SRB assay; format: functional, cell-based; settings: HT-29, 48 h
[3] = Antiproliferative activity against human PC3M cells after 48 hrs by SRB assay; format: functional, cell-based; settings: PC-3M
[4] = Selectivity index, ratio of IC50 for HAF cells to IC50 for human PC3M cells; format: functional
[5] = Selectivity index, ratio of IC50 for HAF cells to IC50 for human ES2 cells; format: functional
[6] = Selectivity index, ratio of IC50 for HAF cells to IC50 for human HT-29 cells; format: functional
[7] = Antiproliferative activity against HAF cells after 48 hrs by SRB assay; format: cell-based; settings: Homo sapiens

Compound | IC50 [1] [µM] | IC50 [2] [µM] | IC50 [3] [µM] | Ratio IC50 [4] | Ratio IC50 [5] | Ratio IC50 [6] | IC50 [7] [µM]
CC(C)C1CC[C@H]2[C@@H]3CC[C@H]([C@H](C)CCC(=O)N4CCN(C)CC4)[C@@]3(C)CC[C@@H]2[C@@]1(C)CCC(=O)N1CCN(C)CC1 (some centres undefined) | 8.2 | 13.8 | 12.7 | – | – | – | –
C=C(C)C1CC[C@H]2[C@@H]3CC[C@H]([C@H](C)CCC(=O)N(CC)CC)[C@@]3(C)CC[C@@H]2[C@@]1(C)CCC(=O)N(CC)CC (some centres undefined) | 14.2 | 6.88 | 11.1 | 5.1 | 4 | 8.1 | 56.2
C#CCNC(=O)CC[C@@H](C)[C@H]1CC[C@H]2[C@@H]3CCC(C(=C)C)[C@](C)(CCC(=O)NCC#C)[C@H]3CC[C@]12C (some centres undefined) | 3.11 | 85.5 | 50.4 | – | 20 | – | 61.9
C=C(C)C1CC[C@H]2[C@@H]3CC[C@H]([C@H](C)CCC(=O)n4cccn4)[C@@]3(C)CC[C@@H]2[C@@]1(C)CCC(=O)n1cccn1 (some centres undefined) | > 80 | > 80 | > 80 | – | – | – | –
C=C(C)C1CC[C@H]2[C@@H]3CC[C@H]([C@H](C)CCC(N)=O)[C@@]3(C)CC[C@@H]2[C@@]1(C)CCC(N)=O (some centres undefined) | 36.9 | 36.7 | 39.2 | – | – | – | –
C=C(C)C1CC[C@H]2[C@@H]3CC[C@H]([C@H](C)CCC(=O)NCc4ccccc4)[C@@]3(C)CC[C@@H]2[C@@]1(C)CCC(=O)NCc1ccccc1 (some centres undefined) | > 80 | 13 | 13.6 | >3.7 | – | >3.9 | > 50
C=C(C)C1CC[C@H]2[C@@H]3CC[C@H]([C@H](C)CCC(=O)NC4CC4)[C@@]3(C)CC[C@@H]2[C@@]1(C)CCC(=O)NC1CC1 (some centres undefined) | > 80 | > 80 | 17 | – | – | – | –
C=C(C)C1CC[C@H]2[C@@H]3CC[C@H]([C@H](C)CCC(=O)OC)[C@@]3(C)CC[C@@H]2[C@@]1(C)CCC(=O)N1CCN(C)CC1 (some centres undefined) | 31.7 | 13.7 | 41.8 | – | – | – | –
C=C(C)C1CC[C@H]2[C@@H]3CC[C@H]([C@H](C)CCC(=O)N4CCOCC4)[C@@]3(C)CC[C@@H]2[C@@]1(C)CCC(=O)N1CCOCC1 (some centres undefined) | 29.6 | 16.6 | 22.5 | – | – | – | –
C=C(C)C1CC[C@H]2[C@@H]3CC[C@H]([C@H](C)CCC(=O)N4CCN(C(C)C)CC4)[C@@]3(C)CC[C@@H]2[C@@]1(C)CCC(=O)N1CCN(C(C)C)CC1 (some centres undefined) | 6.68 | 9.91 | 1.66 | 16.3 | 4 | 2.7 | 27
C[C@H](CCC(=O)O)[C@H]1CC[C@H]2[C@@H]3[C@H](O)C[C@@H]4C[C@H](O)CC[C@]4(C)[C@H]3CC[C@]12C [CHENODIOL] | > 80 | > 80 | > 80 | – | – | – | –
C=C(C)C1CC[C@H]2[C@@H]3CC[C@H]([C@H](C)CCC(=O)N4CCN(C)CC4)[C@@]3(C)CC[C@@H]2[C@@]1(C)CCC(=O)N1CCN(C)CC1 (some centres undefined) | 3.63 | 1.93 | 5.08 | 3 | 4.3 | 8 | 15.5
C=C(C)C1CC[C@H]2[C@@H]3CC[C@H]([C@H](C)CCC(=O)NC(C)C)[C@@]3(C)CC[C@@H]2[C@@]1(C)CCC(=O)NC(C)C (some centres undefined) | > 80 | > 80 | 7.41 | >6.7 | – | – | > 50
C[C@H](CCC(=O)O)[C@H]1CC[C@H]2[C@@H]3CC[C@@H]4C[C@H](O)CC[C@]4(C)[C@H]3C[C@H](O)[C@]12C [DEOXYCHOLIC ACID] | > 80 | > 80 | > 80 | – | – | – | –
C=C(C)C1CC[C@H]2[C@@H]3CC[C@H]([C@H](C)CCC(=O)N4CCN(c5ccccc5)CC4)[C@@]3(C)CC[C@@H]2[C@@]1(C)CCC(=O)N1CCN(c2ccccc2)CC1 (some centres undefined) | > 80 | > 80 | > 80 | – | – | – | –
C[C@H](CCC(=O)O)[C@H]1CC[C@H]2[C@@H]3C[C@H](O)[C@@H]4C[C@H](O)CC[C@]4(C)[C@H]3CC[C@]12C [HYODEOXYCHOLIC_ACID] | > 80 | > 80 | > 80 | – | – | – | –
C=C(C)C1CC[C@H]2[C@@H]3CC[C@H]([C@H](C)CCC(=O)N4CCCC4)[C@@]3(C)CC[C@@H]2[C@@]1(C)CCC(=O)N1CCCC1 (some centres undefined) | 9.25 | 23.7 | 32.4 | – | – | – | –
C=C(C)C1CC[C@H]2[C@@H]3CC[C@H]([C@H](C)CCC(=O)O)[C@@]3(C)CC[C@@H]2[C@@]1(C)CCC(=O)O (some centres undefined) | > 80 | > 80 | > 80 | – | – | – | –
C=C(C)C1CC[C@H]2[C@@H]3CC[C@H]([C@H](C)CCC(=O)N4CCN(C5CCCCC5)CC4)[C@@]3(C)CC[C@@H]2[C@@]1(C)CCC(=O)N1CCN(C2CCCCC2)CC1 (some centres undefined) | 17 | 3.17 | 12 | – | – | – | –
C=C(C)C1CC[C@H]2[C@@H]3CC[C@H]([C@H](C)CCCN4CCN(C)CC4)[C@@]3(C)CC[C@@H]2[C@@]1(C)CCCN1CCN(C)CC1 (some centres undefined) | > 80 | > 80 | > 80 | – | – | – | –
C=C(C)C1CC[C@H]2[C@@H]3CC[C@H]([C@H](C)CCC(=O)Nc4ccc(F)cc4)[C@@]3(C)CC[C@@H]2[C@@]1(C)CCC(=O)Nc1ccc(F)cc1 (some centres undefined) | > 80 | > 80 | > 80 | – | – | – | –
C=C(C)C1CC[C@H]2[C@@H]3CC[C@H]([C@H](C)CCC(=O)N4CCN(CC)CC4)[C@@]3(C)CC[C@@H]2[C@@]1(C)CCC(=O)N1CCN(CC)CC1 (some centres undefined) | 12.5 | 6.19 | 8.47 | – | – | – | –
C=C(C)C1CC[C@H]2[C@@H]3CC[C@H]([C@H](C)CCC(=O)N4CCN(c5ccccc5F)CC4)[C@@]3(C)CC[C@@H]2[C@@]1(C)CCC(=O)N1CCN(c2ccccc2F)CC1 (some centres undefined) | > 80 | > 80 | > 80 | – | – | – | –
C[C@H](CCC(=O)O)[C@H]1CC[C@H]2[C@@H]3CCC(C(C)(C)O)[C@](C)(CCC(=O)O)[C@H]3CC[C@]12C (some centres undefined) | > 80 | > 80 | > 80 | – | – | – | –
C=C(C)C1CC[C@H]2[C@@H]3CC[C@H]([C@H](C)CCC(=O)O)[C@@]3(C)CC[C@@H]2[C@@]1(C)CCC(=O)N1CCN(C)CC1 (some centres undefined) | 53.9 | > 80 | > 80 | – | – | – | –
